# Data from PMC9848351, “Discovery of new pyridine-quinoline hybrids as competitive and non-competitive PIM-1 kinase inhibitors with apoptosis induction and caspase 3/7 activation capabilities” (Journal of Enzyme Inhibition and Medicinal Chemistry, 2023).
# System: caspase 3/7 in HepG-2 cells
# Experiment: Caspase 3/7 activation assay (Apo-ONE kit)
# Assay type: cell-based, human
# Conditions: caspase 3/7, relative to untreated HepG2 cells; mean ± SEM
# Description: The percentage of caspase 3/7 activation was quantified using the Apo-ONE ® caspase 3/7 kit following the manufacturer’s instructions[27] (Supplementary Page S56).
# It’s a fluorescence assay that measures caspase-3 and −7 activities. Caspase 3/7 activators are well known as apoptotic inducers.
# Caspase 3/7 activation assay
# The Apo-ONE ® caspase 3/7 kit following the manufacturer’s instructions was used for quantifying the percentage of caspase 3/7 activation. The fluorescence substrate present in the kit was cut by caspases to produce fluorescence signal. This signal was measured by the fluorescence omega microplate reader (BMG LabTech, Germany) at 490 nm excitation and 520 nm emission.
# Data were expressed as mean ± standard error of the mean (SEM). Statistical significance was estimated by the multiple comparisons Tukey post-hoc analysis of variance (ANOVA) using the SPSS16 program. When p < 0.05, the differences were marked as statistically significant.
# PIM-1 and PIM-2 kinase inhibitory activity
# PIM-1 and PIM-2 kinase utilizing PIM-1 and PIM-2 Kinase Assay Kit – Promega Corporation catalog #V4032, following the manufacturer’s instructions 26 […]
# Information Classification: General
structure (smiles),measurement,value
"N#Cc1c(-c2cc3ccccc3[nH]c2=O)cc(-c2cccc(O)c2)nc1S [14a, 6-(3-Hydroxyphenyl)-2-mercapto-4-(2-oxo-1,2-dihydroquinolin-3-yl)pyridine-3-carbonitrile]",Fold increase in caspase activity,1.86 ± 0.11 fold
